# Reference: the supplement of paper PMC5908809
# What was measured:
# Assay in all cases: relative IC50 (inflection point of fitted viability curve, relative to fitted max inhibition); higher = less sensitive
# Conditions in all cases: 72 h
# SNK-6 (IL-2 2.5 ng/mL) = tested on: SNK-6 (IL-2 2.5 ng/mL)
# Procedure: (§1)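 Drug sensitivity and resistance testing: 5 concentrations over a 10,000-fold range, 72 h at 37 °C, viability by CellTiter-Glo normalised to DMSO and benzethonium chloride controls. IC50 is the inflection point of a logistic fit (min fixed at 0, max fitted), so it is relative to the fitted maximal inhibition. Kept only where fitted max inhibition is at least 50%.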
# NK-92 (IL-2 2.5 ng/mL) = tested on: NK-92 (IL-2 2.5 ng/mL)
# Procedure: as §1
# KHYG-1 (IL-2 2.5 ng/mL) = tested on: KHYG-1 (IL-2 2.5 ng/mL)
# Procedure: as §1
# [1] = tested on: normal primary NK cells, pool 1 (3 donors), resting (IL-2 0 ng/mL)
# Procedure: as §1
# KAI3 (IL-2 2.5 ng/mL) = tested on: KAI3 (IL-2 2.5 ng/mL)
# Procedure: as §1
# DERL-7 (IL-2 2.5 ng/mL) = tested on: DERL-7 (IL-2 2.5 ng/mL)
# Procedure: as §1
# [2] = tested on: normal primary NK cells, pool 3 (3 donors) (IL-2 2.5 ng/mL)
# Procedure: as §1
# [3] = tested on: normal primary NK cells, pool 1 (3 donors) (IL-2 2.5 ng/mL)
# Procedure: as §1
# NKL (IL-2 2.5 ng/mL) = tested on: NKL (IL-2 2.5 ng/mL)
# Procedure: as §1
# [4] = tested on: normal primary NK cells, pool 2 (3 donors) (IL-2 2.5 ng/mL)
# Procedure: as §1
# YT (IL-2 2.5 ng/mL) = tested on: YT (IL-2 2.5 ng/mL)
# Procedure: as §1
# NK-YS (IL-2 2.5 ng/mL) = tested on: NK-YS (IL-2 2.5 ng/mL)
# Procedure: as §1
# IMC-1 (IL-2 20 ng/mL) = tested on: IMC-1 (IL-2 20 ng/mL)
# Procedure: as §1
SMILES,relative IC50 (SNK-6 (IL-2 2.5 ng/mL)) [nM],relative IC50 (NK-92 (IL-2 2.5 ng/mL)) [nM],relative IC50 (KHYG-1 (IL-2 2.5 ng/mL)) [nM],relative IC50 [1] [nM],relative IC50 (KAI3 (IL-2 2.5 ng/mL)) [nM],relative IC50 (DERL-7 (IL-2 2.5 ng/mL)) [nM],relative IC50 [2] [nM],relative IC50 [3] [nM],relative IC50 (NKL (IL-2 2.5 ng/mL)) [nM],relative IC50 [4] [nM],relative IC50 (YT (IL-2 2.5 ng/mL)) [nM],relative IC50 (NK-YS (IL-2 2.5 ng/mL)) [nM],relative IC50 (IMC-1 (IL-2 20 ng/mL)) [nM]
CCn1c(-c2nonc2N)nc2cnc(Oc3cccc(NC(=O)c4ccc(OCCN5CCOCC5)cc4)c3)cc21,50.4,287,1120,1660,1280,63.4,1610,1540,1070,1970,–,–,–
COc1cc2c(Nc3ccc(Cl)c(Cl)c3F)ncnc2cc1OC[C@@H]1C[C@@H]2CN(C)C[C@@H]2C1 [XL-647],–,183,–,157,–,–,–,–,133,–,–,–,–
O=C(O)c1ccc(O)c2ncccc12 [IOX-1],20200,26400,28400,–,17000,21600,–,–,29100,–,32700,32200,37400
Cn1cc(C2=Nc3cc(NC(=O)C(N)C4CCCCC4)cc4c3C2=CNNC4=O)cn1 (stereo not drawn),238,505,134,–,215,1000,1960,3520,652,2370,492,442,259
Cc1cnc(NC(=O)Nc2cc(Br)c(C)cc2OC[C@@H]2CNCCO2)cn1 [Rabusertib],179,172,197,–,203,–,–,> 1000,192,–,–,279,–
COCC1(CO)C(=O)C2CCN1CC2 (stereo not drawn) [APR-246],–,–,–,277,–,–,442,566,–,393,–,–,–
CCc1c2c(nc3ccc(OC(=O)N4CCC(N5CCCCC5)CC4)cc13)-c1cc3c(c(=O)n1C2)COC(=O)[C@]3(O)CC [Irinotecan],260,140,152,–,146,597,–,–,73,–,577,282,347
COc1cccc2c1c(O)c(C(=O)N(C)c1ccc(C(F)(F)F)cc1)c(=O)n2C [Tasquinimod],–,–,–,–,–,> 10000,> 10000,–,–,> 10000,–,–,–
Cc1cc(C(C)Nc2ccccc2)c2nc(N3CCOCC3)cc(=O)n2c1 (stereo not drawn) [TGX-221],–,–,–,1450,–,–,–,–,–,–,–,–,> 10000
S=c1[nH]cnc2nc[nH]c12 [Mercaptopurine],137,393,1420,> 10000,2160,–,–,–,–,–,1410,725,1590
CN(C)C(=O)c1cc2cnc(Nc3ccc(N4CCNCC4)cn3)nc2n1C1CCCC1 [NVP-LEE011],–,–,1060,630,–,–,–,2200,–,–,–,–,–
O=C(c1ccc(/C=C/c2n[nH]c3ccccc23)cc1)N1CCNCC1 [KW-2449],687,–,807,–,–,920,> 2500,–,–,–,–,–,> 2500
CC(C)Oc1ccc(C(=O)N[C@H](CNC(=O)CN(C)C)Cc2ccc(-c3cn4cccc([C@H](C)O)c4n3)cc2)cc1Cl,24.9,204,123,4570,439,70.3,–,–,54.3,–,48.2,56.7,261
COc1cc2ncnc(Nc3ccc(F)c(Cl)c3)c2cc1OCCCN1CCOCC1 [Gefitinib],–,2660,2270,3700,1710,3010,–,–,1770,–,2390,–,–
O=C(O)c1ccc(Nc2ncc3c(n2)-c2ccc(Cl)cc2C(c2c(F)cccc2F)=NC3)cc1 [MLN-8054],73.6,563,259,–,291,763,–,–,107,–,190,125,1540
Cc1ccc2nc(CN(CCN(Cc3nc4ccc(C)cc4[nH]3)Cc3nc4ccc(C)cc4[nH]3)Cc3nc4ccc(C)cc4[nH]3)[nH]c2c1,18200,3900,6250,8020,3470,8270,–,7650,2160,–,7070,8980,8640
C=CC[C@@H]1/C=C(\C)C[C@H](C)C[C@H](OC)[C@H]2O[C@@](O)(C(=O)C(=O)N3CCCC[C@H]3C(=O)O[C@H](/C(C)=C/[C@@H]3CC[C@@H](O)[C@H](OC)C3)[C@H](C)[C@@H](O)CC1=O)[C@H](C)C[C@@H]2OC [Tacrolimus],–,–,–,1620,–,–,–,–,–,–,–,–,–
O=C(O)C(=O)O.[NH-][C@@H]1CCCC[C@H]1[NH-].[Pt+2] [Oxaliplatin],–,–,–,–,–,–,9130,–,–,9290,–,–,9490
CC(C)C[C@@H](C(=O)N[C@H](C(=O)OC1CCCC1)c1ccccc1)[C@H](O)C(=O)NO [Tosedostat],–,–,606,274,–,23.3,–,942,1960,903,1520,–,–
CCn1c(-c2nonc2N)nc2c(C#CC(C)(C)O)ncc(OC[C@H]3CCCNC3)c21,–,–,–,1730,–,269,1870,2160,–,2190,–,–,–
CC[C@]1(O)C[C@@H]2CN(CCc3c([nH]c4ccccc34)[C@@](C(=O)OC)(c3cc4c(cc3OC)N(C)[C@H]3[C@@](O)(C(=O)OC)[C@H](OC(C)=O)[C@]5(CC)C=CCN6CC[C@]43[C@@H]65)C2)C1 [Vinblastine],5.22,7.82,3.44,–,9.24,3.3,–,–,3.72,–,4.62,6.11,3.57
COc1cc(Nc2ncc(F)c(Nc3ccc4c(n3)NC(=O)C(C)(C)O4)n2)cc(OC)c1OC [Tamatinib],3590,2180,1340,> 10000,536,–,2800,–,992,–,2580,1650,4100
C[C@H]1C[C@@H]2[C@H]([C@@H](O)C[C@@]3(C)[C@H]2CC[C@]3(O)C(=O)CO)[C@@]2(C)C=CC(=O)C=C12 [Methylprednisolone],–,–,197,9.66,–,22.1,88.8,33.4,13.3,41.7,164,–,> 10000
CC(=O)N(O)CCCCCNC(=O)CCC(=O)N(O)CCCCCNC(=O)CCC(=O)N(O)CCCCCN [Deferoxamine],–,–,–,–,–,–,1580,–,–,–,–,–,3210
CCN(CC)CCCC(C)Nc1c2ccc(Cl)cc2nc2ccc(OC)cc12 (stereo not drawn) [Mepacrine],–,–,–,–,–,–,1550,–,–,1220,–,–,1500
CCS(=O)(=O)N1CC(CC#N)(n2cc(-c3ncnc4[nH]ccc34)cn2)C1 [Baricitinib],73.3,95.8,26.2,–,18.4,51.9,124,46.9,12,54.4,163,63.5,451
CNC(=O)c1cc(Oc2ccc(NC(=O)Nc3cc(C(C)(C)C)nn3-c3ccc4ncccc4c3)c(F)c2)ccn1 [Rebastinib],–,–,–,–,–,–,> 1000,> 1000,–,> 1000,–,–,–
COc1cc(O)c2c(c1)/C=C/C[C@H](O)[C@H](O)C(=O)/C=C\C[C@H](C)OC2=O [(5Z)-7-Oxozeaenol],1560,1510,480,688,797,572,2050,782,156,1600,1060,1140,–
O=C(Nc1ccc2[nH]nc(-c3ccncc3)c2c1)[C@@H]1CCN(CC(=O)N2CCN(c3ccc(-c4ncccn4)cc3)CC2)C1,–,–,784,1670,–,382,–,–,516,–,–,–,> 10000
